# Test results reported in patent US20070128217A1 (priority 2003, published 2007).
# Experiments:
# [1] = tested on: antibodies in sera from SARS patients (sera 1a, 1b, 2, 6, 37, 62, London, SARS-yellow, SARS-green); assay type: binding, human; design: Binding of serum 6 to linear peptides of protein X1 of SARS-CoV Urbani / Binding of serum 37 to linear peptides of protein X1 of SARS-CoV Urbani / Binding of serum 6 to looped/cyclic peptide (PEPSCAN-ELISA) / Binding of serum 37 to looped/cyclic peptide (PEPSCAN-ELISA) / Binding of serum 37 to looped/cyclic peptides of protein X1 of SARS-CoV Urbani / Binding of serum 6 to linear peptides of protein X2 / Binding of serum 37 to linear peptides of protein X2 / Binding of serum 37 to looped/cyclic peptides of protein X2 of SARS-CoV Urbani / Binding of serum 6 to linear peptides of protein M of SARS-CoV Urbani / Binding of serum 37 to linear peptides of protein M of SARS-CoV Urbani / Binding of serum 6 to looped/cyclic peptides of protein M of SARS-CoV Urbani / Binding of serum 37 to looped/cyclic peptides of protein M of SARS-CoV Urbani / Binding of serum 6 to linear peptides of protein X3 of SARS-CoV Urbani / Binding of serum 37 to linear peptides of protein X3 of SARS-CoV Urbani / Binding of serum 37 to looped/cyclic peptides of protein X3 of SARS-CoV Urbani / Binding of serum 6 to linear peptides of protein X4 of SARS-CoV Urbani / Binding of serum 37 to linear peptides of protein X4 of SARS-CoV Urbani / Binding of serum 37 to looped/cyclic peptides of protein X4 of SARS-CoV Urbani / Binding of serum 6 to linear peptides of protein X5 of SARS-CoV Urbani / Binding of serum 37 to linear peptides of protein X5 of SARS-CoV Urbani / Binding of serum 37 to looped/cyclic peptides of protein X5 of SARS-CoV Urbani / Binding of serum 6 to linear peptides of protein N of SARS-CoV Urbani / Binding of serum 37 to linear peptides of protein N of SARS-CoV Urbani / Binding of serum 6 to linear peptide (PEPSCAN-ELISA) / Binding of serum 1a to looped/cyclic peptides of protein N of SARS-CoV Urbani / Binding of serum 1b to looped/cyclic peptides of protein N of SARS-CoV Urbani / Binding of serum 2 to looped/cyclic peptides of protein N of SARS-CoV Urbani / Binding of serum 6 to looped/cyclic peptides of protein N of SARS-CoV Urbani / Binding of serum 37 to looped/cyclic peptides of protein N of SARS-CoV Urbani / Binding of serum 62 to looped/cyclic peptides of protein N of SARS-CoV Urbani / Binding of serum London to looped/cyclic peptides of protein N of SARS-CoV Urbani / Binding of serum SARS-green to looped/cyclic peptides of protein N of SARS-CoV Urbani: unit not given here
# [2] = tested on: control sera (pooled serum of ten healthy LUMC hospital workers; commercial negative donor pooled serum from the Dutch bloodbank); assay type: binding, human
# [3] = tested on: rabbit serum obtained by immunizing a rabbit with the SARS-CoV strain Frankfurt 1; assay type: binding; design: Binding of a rabbit serum to linear peptides / Binding of a rabbit serum to looped peptides / Rabbit serum linear peptides / Rabbit serum looped peptides / Binding of a rabbit serum to linear peptides of protein N of SARS-CoV Urbani (Rabbit serum linear peptides) / Binding of a rabbit serum to looped/cyclic peptides of protein N of SARS-CoV Urbani (Rabbit serum looped peptides): unit not given here
sequence,measurement,setting,value
SFVSEETGTLIVNSV,Binding of serum 1a to linear peptides of protein E of SARS-CoV Urbani,[1],0.9
same,Binding of serum 1a to looped/cyclic peptides of protein E of SARS-CoV Urbani,[1],0.5
same,Binding of serum 1b to linear peptides of protein E of SARS-CoV Urbani,[1],0.7
same,Binding of serum 1b to looped/cyclic peptides of protein E of SARS-CoV Urbani,[1],0.4
same,Binding of serum 2 to linear peptides of protein E of SARS-CoV Urbani,[1],0.6
same,Binding of serum 2 to looped/cyclic peptides of protein E of SARS-CoV Urbani,[1],0.5
same,Binding of serum 6 to linear peptides of protein E of SARS-CoV Urbani,[1],0.6
same,Binding of serum 6 to looped/cyclic peptides of protein E of SARS-CoV Urbani,[1],0.4
same,Binding of serum 37 to linear peptides of protein E of SARS-CoV Urbani,[1],0.8
same,Binding of serum 37 to looped/cyclic peptides of protein E of SARS-CoV Urbani,[1],0.6
same,Binding of serum 62 to linear peptides of protein E of SARS-CoV Urbani,[1],0.8
same,Binding of serum 62 to looped/cyclic peptides of protein E of SARS-CoV Urbani,[1],0.7
same,Binding of serum London to linear peptides of protein E of SARS-CoV Urbani,[1],0.5
same,Binding of serum London to looped/cyclic peptides of protein E of SARS-CoV Urbani,[1],0.5
same,Binding of serum SARS-green to linear peptides of protein E of SARS-CoV Urbani,[1],0.5
same,Binding of serum SARS-green to looped/cyclic peptides of protein E of SARS-CoV Urbani,[1],0.4
same,Binding of serum SARS-yellow to linear peptides of protein E of SARS-CoV Urbani,[1],0.1
same,Binding of serum SARS-yellow to looped/cyclic peptides of protein E of SARS-CoV Urbani,[1],0.7
same,Binding of Control Serum Blood-Bank to Looped peptides,[2],0.7
same,Binding of Control serum Blood-bank to linear peptides,[2],0.9
same,Binding of Control serum LUMC to linear peptides,[2],0.6
same,Binding of Control serum LUMC to looped peptides,[2],0.7
same,Binding of a rabbit serum to linear peptides,[3],0.5
same,Binding of a rabbit serum to looped peptides,[3],0.1
AIWNLDVIISSIVRQ,Binding of serum 1a to linear peptides of protein X3 of SARS-CoV Urbani,[1],0.8
same,Binding of serum 1a to looped/cyclic peptides of protein X3 of SARS-CoV Urbani,[1],0.5
same,Binding of serum 1b to linear peptides of protein X3 of SARS-CoV Urbani,[1],0.4
same,Binding of serum 1b to looped/cyclic peptides of protein X3 of SARS-CoV Urbani,[1],0.5
same,Binding of serum 2 to linear peptides of protein X3 of SARS-CoV Urbani,[1],0.6
same,Binding of serum 2 to looped/cyclic peptides of protein X3 of SARS-CoV Urbani,[1],0.4
same,Binding of serum 6 to linear peptides of protein X3 of SARS-CoV Urbani,[1],0.5
same,Binding of serum 6 to looped/cyclic peptides of protein X3 of SARS-CoV Urbani,[1],0.4
same,Binding of serum 37 to linear peptides of protein X3 of SARS-CoV Urbani,[1],0.6
same,Binding of serum 37 to looped/cyclic peptides of protein X3 of SARS-CoV Urbani,[1],0.6
same,Binding of serum 62 to linear peptides of protein X3 of SARS-CoV Urbani,[1],0.6
same,Binding of serum 62 to looped/cyclic peptides of protein X3 of SARS-CoV Urbani,[1],0.5
same,Binding of serum London to linear peptides of protein X3 of SARS-CoV Urbani,[1],0.6
same,Binding of serum London to looped/cyclic peptides of protein X3 of SARS-CoV Urbani,[1],0.2
same,Binding of serum SARS-green to linear peptides of protein X3 of SARS-CoV Urbani,[1],0.3
same,Binding of serum SARS-green to looped/cyclic peptides of protein X3 of SARS-CoV Urbani,[1],0.4
same,Binding of serum SARS-yellow to linear peptides of protein X3 of SARS-CoV Urbani,[1],0.3
same,Binding of serum SARS-yellow to looped/cyclic peptides of protein X3 of SARS-CoV Urbani,[1],0.6
same,Binding of Control Serum Blood-Bank to Looped peptides of the protein X3 of SARS-CoV Urbani,[2],0.8
same,Binding of Control serum Blood-bank to linear peptides of the protein X3 of SARS-CoV Urbani,[2],0.7
same,Binding of Control serum LUMC to linear peptides of the protein X3 of SARS-CoV Urbani,[2],0.7
same,Binding of Control serum LUMC to looped peptides of the protein X3 of SARS-CoV Urbani,[2],0.7
same,Rabbit serum linear peptides,[3],0.3
same,Rabbit serum looped peptides,[3],0.4
ALRLCAYCCNIVNVS,Binding of serum 1a to linear peptides of protein E of SARS-CoV Urbani,[1],0.9
same,Binding of serum 1a to looped/cyclic peptides of protein E of SARS-CoV Urbani,[1],0.8
same,Binding of serum 1b to linear peptides of protein E of SARS-CoV Urbani,[1],0.8
same,Binding of serum 1b to looped/cyclic peptides of protein E of SARS-CoV Urbani,[1],0.8
same,Binding of serum 2 to linear peptides of protein E of SARS-CoV Urbani,[1],0.5
same,Binding of serum 2 to looped/cyclic peptides of protein E of SARS-CoV Urbani,[1],0.7
same,Binding of serum 6 to linear peptides of protein E of SARS-CoV Urbani,[1],0.7
same,Binding of serum 6 to looped/cyclic peptides of protein E of SARS-CoV Urbani,[1],0.7
same,Binding of serum 37 to linear peptides of protein E of SARS-CoV Urbani,[1],0.8
same,Binding of serum 37 to looped/cyclic peptides of protein E of SARS-CoV Urbani,[1],0.7
same,Binding of serum 62 to linear peptides of protein E of SARS-CoV Urbani,[1],0.7
same,Binding of serum 62 to looped/cyclic peptides of protein E of SARS-CoV Urbani,[1],0.8
same,Binding of serum London to linear peptides of protein E of SARS-CoV Urbani,[1],0.5
same,Binding of serum London to looped/cyclic peptides of protein E of SARS-CoV Urbani,[1],0.6
same,Binding of serum SARS-green to linear peptides of protein E of SARS-CoV Urbani,[1],0.5
same,Binding of serum SARS-green to looped/cyclic peptides of protein E of SARS-CoV Urbani,[1],0.6
same,Binding of serum SARS-yellow to linear peptides of protein E of SARS-CoV Urbani,[1],0.2
same,Binding of serum SARS-yellow to looped/cyclic peptides of protein E of SARS-CoV Urbani,[1],0.7
same,Binding of Control Serum Blood-Bank to Looped peptides,[2],1.1
same,Binding of Control serum Blood-bank to linear peptides,[2],0.8
same,Binding of Control serum LUMC to linear peptides,[2],0.5
same,Binding of Control serum LUMC to looped peptides,[2],0.8
same,Binding of a rabbit serum to linear peptides,[3],0.7
same,Binding of a rabbit serum to looped peptides,[3],0.4
VSEETGTLIVNSVLL,Binding of serum 1a to linear peptides of protein E of SARS-CoV Urbani,[1],0.8
same,Binding of serum 1a to looped/cyclic peptides of protein E of SARS-CoV Urbani,[1],0.7
same,Binding of serum 1b to linear peptides of protein E of SARS-CoV Urbani,[1],0.5
same,Binding of serum 1b to looped/cyclic peptides of protein E of SARS-CoV Urbani,[1],0.6
same,Binding of serum 2 to linear peptides of protein E of SARS-CoV Urbani,[1],0.3
same,Binding of serum 2 to looped/cyclic peptides of protein E of SARS-CoV Urbani,[1],0.6
same,Binding of serum 6 to linear peptides of protein E of SARS-CoV Urbani,[1],0.4
same,Binding of serum 6 to looped/cyclic peptides of protein E of SARS-CoV Urbani,[1],0.5
same,Binding of serum 37 to linear peptides of protein E of SARS-CoV Urbani,[1],0.5
same,Binding of serum 37 to looped/cyclic peptides of protein E of SARS-CoV Urbani,[1],0.7
same,Binding of serum 62 to linear peptides of protein E of SARS-CoV Urbani,[1],0.7
same,Binding of serum 62 to looped/cyclic peptides of protein E of SARS-CoV Urbani,[1],0.9
same,Binding of serum London to linear peptides of protein E of SARS-CoV Urbani,[1],0.5
same,Binding of serum London to looped/cyclic peptides of protein E of SARS-CoV Urbani,[1],0.5
same,Binding of serum SARS-green to linear peptides of protein E of SARS-CoV Urbani,[1],0.4
same,Binding of serum SARS-green to looped/cyclic peptides of protein E of SARS-CoV Urbani,[1],0.6
same,Binding of serum SARS-yellow to linear peptides of protein E of SARS-CoV Urbani,[1],0.1
same,Binding of serum SARS-yellow to looped/cyclic peptides of protein E of SARS-CoV Urbani,[1],0.7
same,Binding of Control Serum Blood-Bank to Looped peptides,[2],0.9
same,Binding of Control serum Blood-bank to linear peptides,[2],0.8
same,Binding of Control serum LUMC to linear peptides,[2],0.5
same,Binding of Control serum LUMC to looped peptides,[2],0.7
same,Binding of a rabbit serum to linear peptides,[3],0.4
same,Binding of a rabbit serum to looped peptides,[3],0.1
